Holding throughout (type): cell-based
The test system of test [1] is Trichophyton rubrum NBRC6203. Nature of the test: In vitro anti-tinea fungus activity test (T. rubrum). The following applies: Table 22, 27° C. for 5 days, alamar Blue, minimum concentration showing 80% or more inhibition. Here is the method:
(§1) Trichophyton rubrum NBRC6203 and Trichophyton mentagrophytes TIMM2789 were used as the strains. The test fungi were cultured on a Sabouraud dextrose agar slant medium at 27° C. for 10-13 days, and then suspended in sterilized saline. The number of cells in this suspension was counted using a hemocytometer, and the same suspension was adjusted to a cell concentration of 2×10^6 conidia/mL, and this was used as an inoculum. Each compound was dissolved in dimethyl sulfoxide to a predetermined concentration, and diluted 50-fold with 0.165 M MOPS buffered RPMI 1640 liquid medium, and each diluted solution was dispensed into a 96-well microplate by each 100 μL. The inoculum was diluted 50-fold with 0.165 M MOPS buffered RPMI 1640 liquid medium containing 20% alamar Blue™, and the diluted solution was inoculated into the 96-well microplate containing the compound by each 100 μL (final inoculum amount 2×10^4 conidia/mL). After static culture at 27° C. for 3 days (Trichophyton mentagrophytes) or for 5 days (Trichophyton rubrum), the degree of color development of the alamar Blue™ was measured using a microplate reader (O.D. 570-595 nm), and the minimum concentration showing 80% or more inhibition was defined as the minimum inhibitory concentration (MIC).
Background: The colour change of resazurin is a common sign of viable cells or microbes.

For test [2], the system named is Trichophyton mentagrophytes TIMM2789. Nature of the test: In vitro anti-tinea fungus activity test (T. mentagrophytes). The conditions noted are these: Table 22, 27° C. for 3 days, alamar Blue, minimum concentration showing 80% or more inhibition. Here is the method:
as §1

In test [3] the test system is Aspergillus fumigatus TIMM0063. In words: In vitro anti-Aspergillus activity test. The conditions noted are these: Table 22, 35° C. for 48 hr, alamar Blue, minimum concentration showing 80% or more inhibition. On the procedure:
Aspergillus fumigatus TIMM0063 was used as the strain. The test fungi were cultured on a Potato dextrose agar slant medium at 35° C. for 4 days, and then sterilized saline containing 0.1% (v/v) Tween 80 was added to release the conidia. This conidial suspension was filtered through sterile gauze, and the number of conidia was counted using a hemocytometer. The same solution was adjusted to a conidial concentration of 1×10^6 conidia/mL, and this was used as an inoculum. Each compound was dissolved in dimethyl sulfoxide to a predetermined concentration, and diluted 50-fold with 0.165 M MOPS buffered RPMI 1640 liquid medium, and each diluted solution was dispensed into a 96-well microplate by each 100 μL. The inoculum was diluted 50-fold with 0.165 M MOPS buffered RPMI 1640 liquid medium containing 20% alamar Blue™, and the diluted solution was inoculated into the 96-well microplate containing the compound by each 100 μL (final inoculum amount 1.0×10^4 conidia/mL). After static culture at 35° C. for 48 hr, the degree of color development of the alamar Blue™ was measured using a microplate reader (O.D. 570-595 nm), and the minimum concentration showing 80% or more inhibition was defined as the minimum inhibitory concentration (MIC).

The test system of test [4] is Candida albicans NBRC1270. Nature of the test: In vitro anti-Candida activity test. The following applies: Table 22, 35° C. for 24 hr, alamar Blue, minimum concentration showing 80% or more inhibition. On the procedure: Candida albicans NBRC1270 was used as the strain. The test fungi were cultured on a Sabouraud dextrose agar slant medium at 35° C. for 24 hr, and then suspended in sterilized saline. The number of cells in this suspension was counted using a hemocytometer, and the same suspension was adjusted to a cell concentration of 1.5×10^5 cells/mL, and this was used as an inoculum. Each compound was dissolved in dimethyl sulfoxide to a predetermined concentration, and diluted 50-fold with 0.165 M MOPS buffered RPMI 1640 liquid medium, and each diluted solution was dispensed into a 96-well microplate by each 100 μL. The inoculum was diluted 50-fold with 0.165 M MOPS buffered RPMI 1640 liquid medium containing 20% alamar Blue™, and the diluted solution was inoculated into the 96-well microplate containing the compound by each 100 μL (final inoculum amount 1.5×10^3 cells/mL). After static culture at 35° C. for 24 hr, the degree of color development of the alamar Blue™ was measured using a microplate reader (O.D. 570-595 nm), and the minimum concentration showing 80% or more inhibition was defined as the minimum inhibitory concentration (MIC).

Converted amounts (≈) assume the structure as drawn.

In the case of `CC(C)(C)OC(=O)Nc1cnc(C2CS/C(=C(/C#N)n3cncn3)S2)c(Cl)c1` (stereo not drawn) [compound 12], the “minimum inhibitory concentration against various fungi (MIC) T. rubrum” value in test [1] is 10 ng/mL (≈ 0.0229 µM). Also, the “minimum inhibitory concentration against various fungi (MIC) T. mentagrophytes” value in test [2] is 100 ng/mL (≈ 0.229 µM). Also, the “minimum inhibitory concentration against various fungi (MIC) A. fumigatus” value in test [3] turned out to be 100 ng/mL (≈ 0.229 µM). Besides, in test [4], the “minimum inhibitory concentration against various fungi (MIC) C. albicans” value was determined as 10 ng/mL (≈ 0.0229 µM).

With `CCOC(=O)Nc1cnc(C2CS/C(=C(/C#N)n3ccnc3)S2)c(Cl)c1` (stereo not drawn) [compound 16], the “minimum inhibitory concentration against various fungi (MIC) T. rubrum” value in test [1] is at most 1 ng/mL. Also, in test [2], the “minimum inhibitory concentration against various fungi (MIC) T. mentagrophytes” value worked out at 10 ng/mL (≈ 0.0245 µM). In test [3], the “minimum inhibitory concentration against various fungi (MIC) A. fumigatus” value is 5 ng/mL (≈ 0.0123 µM). For the same molecule, in test [4], the “minimum inhibitory concentration against various fungi (MIC) C. albicans” value came to 2.5 ng/mL (≈ 0.00613 µM).

Consider `CO/N=C/c1cnc(C2CS/C(=C(/C#N)n3cncn3)S2)c(Cl)c1` (stereo not drawn) [compound 19], for which, in test [1], the “minimum inhibitory concentration against various fungi (MIC) T. rubrum” value is at most 1 ng/mL. Further, in test [2], the “minimum inhibitory concentration against various fungi (MIC) T. mentagrophytes” value was 10 ng/mL (≈ 0.0264 µM). The “minimum inhibitory concentration against various fungi (MIC) A. fumigatus” value in test [3] stood at 5 ng/mL (≈ 0.0132 µM). Besides, in test [4], the “minimum inhibitory concentration against various fungi (MIC) C. albicans” value was 10 ng/mL (≈ 0.0264 µM).

On to `CCO/N=C/c1cnc(C2CS/C(=C(/C#N)n3cncn3)S2)c(Cl)c1` (stereo not drawn) [compound 21], for which the “minimum inhibitory concentration against various fungi (MIC) T. rubrum” value in test [1] was at most 1 ng/mL. Besides, the “minimum inhibitory concentration against various fungi (MIC) T. mentagrophytes” value in test [2] was determined as 10 ng/mL (≈ 0.0255 µM). Moreover, the “minimum inhibitory concentration against various fungi (MIC) A. fumigatus” value in test [3] was determined as 5 ng/mL (≈ 0.0127 µM). Moreover, the “minimum inhibitory concentration against various fungi (MIC) C. albicans” value in test [4] came out at 5 ng/mL (≈ 0.0127 µM).

Turning to `N#C/C(=C1/SCC(c2ncc(/C=N/OCc3ccccc3)cc2Cl)S1)n1cncn1` (stereo not drawn) [compound 23], the “minimum inhibitory concentration against various fungi (MIC) T. rubrum” value in test [1] was at most 1 ng/mL. In addition, in test [2], the “minimum inhibitory concentration against various fungi (MIC) T. mentagrophytes” value turned out to be 10 ng/mL (≈ 0.022 µM). Further, the “minimum inhibitory concentration against various fungi (MIC) A. fumigatus” value in test [3] stood at 5 ng/mL (≈ 0.011 µM). In addition, the “minimum inhibitory concentration against various fungi (MIC) C. albicans” value in test [4] came out at 0.6 ng/mL (≈ 0.00132 µM).

As to `CO/N=C/c1cnc(C2CS/C(=C(/C#N)n3ccnc3)S2)c(Cl)c1` (stereo not drawn) [compound 24], the “minimum inhibitory concentration against various fungi (MIC) T. rubrum” value in test [1] is at most 1 ng/mL. In addition, in test [2], the “minimum inhibitory concentration against various fungi (MIC) T. mentagrophytes” value was at most 1 ng/mL. Also, the “minimum inhibitory concentration against various fungi (MIC) A. fumigatus” value in test [3] is 2.5 ng/mL (≈ 0.00662 µM). Further, the “minimum inhibitory concentration against various fungi (MIC) C. albicans” value in test [4] was 2.5 ng/mL (≈ 0.00662 µM).

These data come from patent US20250197384A1, “AZOLE COMPOUND AND ANTIFUNGAL AGENT” (NIHON NOHYAKU CO., LTD., priority 2022, published 2025).
